Test results from patent publication US20260374814A1, “Synthetic Peptide And Construct” (TOAGOSEI CO., LTD, priority 2022, published 2026).
FAM = 5(6)-carboxyfluorescein

Test system: NSC-34 cells
Experiment: Evaluation of Cell Membrane Permeability by Flow Cytometry (transfer of FAM construct into NSC-34 cells)
Assay type: cell-based
Conditions: NSC-34 cells (mouse motor neuron-like hybrid cell line); 20 μM in culture medium; 20 hours at 37 °C, 5% CO2; flow cytometer, detector FL2
Method: As the eukaryotic cells, NSC-34 cells (mouse motor neuron-like hybrid cell line) were used and the cell membrane permeability of the peptides 1 to 3 was analyzed. As a culture medium of the NSC-34 cell, 10% fetal bovine serum (FBS)-containing Dulbecco's modified Eagle's medium (DMEM (Cat No. 044-29765, manufactured by FUJIFILM Wako Pure Chemical Corporation)) was used. The samples 1 to 3 were each dissolved in dimethyl sulfoxide (DMSO) to prepare sample solutions 1 to 3 with a sample concentration of 4 mM. Then, the sample solutions were diluted in the culture medium to prepare 40 μM sample solutions 1 to 3. The aforementioned prepared sample solutions 1 to 3 were used in Examples 1 to 3, and the FAM solution was used in Reference Example 1.
The NSC-34 cell was suspended in the culture medium to prepare a cell suspension of 2×10^5 cells/mL. The cell suspension was added by 1 mL to a well of a commercially available six-hole (well) plate (manufactured by AGC TECHNO GLASS Co., Ltd.) so as to seed the NSC-34 cell to be 2×10^5 cells/well. Next, 1 mL of the 40 μM sample solution 1 was added to the well so that the sample concentration in the culture medium in the well became 20 μM. After that, the six-well plate was left at rest in a cell culture apparatus, and incubated for 20 hours at 37 °C under a 5% CO2 condition.
After the 20-hour incubation, the culture supernatant was removed from the well and the cells in the well were cleaned twice with 1 mL of PBS. Next, 100 μL of the 0.25% trypsin/EDTA solution was added to the well and the incubation was performed for three minutes at 37 °C. After the incubation, 900 μL of the culture medium was added to the well to deactivate the trypsin. Subsequently, the cell suspension in the well was transferred to a tube and the cells were collected. This tube was subjected to five-minute centrifugal separation at 4 °C under a condition of 210×g. […]
Regarding the obtained cells (cell pellet), the cell membrane permeability of the sample 1 was analyzed using a flow cytometer. […]
Using the aforementioned flow cytometer, gating based on forward scatter (FSC) and side scatter (SSC) was performed to set a gate about a cell group to be analyzed, and the fluorescence intensity was measured about the cell group in this gate. […] The fluorescence intensity was measured using a fluorescence detector FL2 of the flow cytometer (optimum detection wavelength around 543 nm) capable of detecting the fluorescence wavelength of FAM. Regarding this measurement result, the analysis was performed using commercially available analysis software “FlowJo” (manufactured by TreeStar) to obtain mean fluorescence intensity (MFI) of the cell group to be measured. […]

Row | Substance | MFI (mean fluorescence intensity)
1 | Ac-SASAG-FAM [Example 1] | 20.9
2 | Ac-SASASAG-FAM (Ac-SASASAG-{FAM}) [Example 2, construct: peptide 2 (SASASAG), N-terminus acetylated, with FAM bonded to the C-terminus amino acid residue] | 19.2
3 | 5(6)-carboxyfluorescein [Reference Example 1, reference compound] | 10.9
4 | Ac-SASASASAG-FAM (Ac-SASASASAG-{FAM}) [Example 3, construct: peptide 3 (…), N-terminus acetylated, with FAM bonded to the C-terminus amino acid residue] | 22.8
